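Assay format: 96-well plates, 48-hour exposure. The concentration for full growth arrest is given as TGI.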 Bounds are passed on as bounds.

For 22 molecules, TGI results are on record in PubChem BioAssay (NCI).

Common to all, as to experiment: NCI anticancer screen, dose series, 48 h
Assay [1] has as its system MDA-MB-435.
Assay [2] concerns CAKI-1 renal.
Assay [3] concerns NCI/ADR-RES ovarian.
For assay [4], the system named is SK-MEL-5 melanoma.
Assay [5] relates to NCI-H460 lung.
Assay [6] deals with RPMI-8226 leukemia.
The test system of assay [7] is OVCAR-5 ovarian.
In assay [8] the test system is SR leukemia.
Assay [9] relates to EKVX NSCLC.
Assay [10] deals with HT29 colon.
Assay [11] relates to BT-549 breast.
Assay [12] concerns SN12C renal.
The subject of assay [13] is UACC-62 melanoma.

`Brc1ccc(CCNCCN2CCCCC2)cc1`: the TGI is 18.2 µM in assay [1]; 29.2 µM in [2]; 59.5 µM in [3]; 20.6 µM in assay [4]; 27.8 µM in assay [5]; more than 100 µM in assay [6]. Also, the TGI is 36.2 µM in assay [7]; more than 100 µM in [8]; more than 100 µM in assay [9]; 15.4 µM in assay [10]; 29.4 µM in [11]; 58.5 µM in assay [12].
Take `CC1(C)OCC(COC(=O)C=[N+]=[N-])O1` (stereo unspecified): the TGI in assay [1], in [2], in assay [4], in [13], in [5] and in [6] was more than 100 µM throughout. In addition, the TGI in assay [7], in assay [8], in [9], in [10], in assay [11] and in [12] was more than 100 µM in each case.
As to `COc1ccc(-c2cc(-c3ccco3)c(C#N)c(=S)n2C2OC(COC(C)=O)C(OC(C)=O)C(OC(C)=O)C2OC(C)=O)cc1` (stereo unspecified), the TGI came out at 28.2 µM in [1]; 13.9 µM in assay [2]; 37.7 µM in assay [3]; 22.8 µM in assay [4]; 14.4 µM in [13]; 52 µM in assay [5]. In addition, the TGI in [6] came out at 22.8 µM; in [7] it was 30.9 µM; in assay [9], 32.2 µM; in assay [10], 14.8 µM; in [11], 8.23 µM; in assay [12], 24 µM.
Consider `Nc1ccc2nc(-c3ccccn3)c(-c3ccccn3)nc2c1`, for which the TGI in assay [1], in [2], in [3], in [4], in assay [13] and in assay [5] was more than 100 µM in each case. The TGI in [6], in assay [7], in assay [8], in [9], in assay [11] and in [12] was more than 100 µM throughout.
With `OCC1CCCCCCCCCCC12SCCCS2` (stereo unspecified), the TGI in assay [1], in assay [2], in assay [3], in [4], in assay [13] and in [5] was more than 100 µM in each case. Besides, the TGI in assay [6], in assay [7], in assay [8], in assay [9], in assay [10] and in assay [11] was more than 100 µM each time.
As for `Cc1ccc([C@@H]2[C@@H](C(=O)c3ccccn3)[C@H](c3ccc(C)cc3)C[C@](O)(c3ccccn3)[C@H]2C(=O)c2ccccn2)cc1`, the TGI is more than 100 µM in assay [1]; more than 100 µM in [2]; more than 100 µM in [3]; more than 100 µM in assay [4]; 35.2 µM in [13]; 10.7 µM in assay [5]. Besides, the TGI in [6] was more than 92.6 µM; in [7] it was more than 85.8 µM; in assay [8] it was more than 100 µM; in assay [10], more than 100 µM; in [11] it was more than 100 µM; in assay [12] it was more than 100 µM.
`CN1C(=O)C2C(=O)N(Cc3ccccc3)CC(=O)N2c2cccnc21` (stereo unspecified): the TGI in assay [1], in [2], in assay [3], in assay [4], in assay [13] and in [5] was more than 100 µM throughout. The TGI in assay [6], in [7], in assay [8], in [9], in [10] and in assay [11] was more than 100 µM throughout.
`COc1cc(/C=C2/C(=O)N(C(=O)c3ccccc3O)N=C2C)cc(OC)c1OC`: the TGI is more than 100 µM in assay [1]; more than 25.8 µM in assay [2]; more than 100 µM in [3]; 33.6 µM in assay [4]; 16.9 µM in assay [13]; more than 100 µM in [5]. Besides, the TGI was more than 100 µM in assay [6]; more than 100 µM in assay [7]; more than 100 µM in [9]; more than 100 µM in [10]; more than 100 µM in assay [11]; more than 91.2 µM in assay [12].
Turning to `O=C(NNC(=S)Nc1ccc(Cl)cc1)c1cc(-c2ccccc2)nc2ccccc12`, the TGI is 11.4 µM in assay [1]; 20.6 µM in assay [2]; 30.7 µM in assay [3]; 16.4 µM in [4]; 12.6 µM in assay [13]; 25.6 µM in assay [5]. Besides, the TGI in assay [6] was found to be 48 µM; in [7], 24.4 µM; in [8] it was 4.72 µM; in [10] it was 34.9 µM; in assay [11], 19.2 µM; in assay [12], 21.4 µM.
Take `CSc1nc(Cl)c2c(n1)Sc1nc3cc4c(cc3n1C2O)OCCO4` (stereo unspecified): the TGI in assay [1] is more than 100 µM; in [2] it was 1.21 µM; in assay [3] it was 0.407 µM; in [13] it was 7.87 µM; in assay [5], 2.39 µM; in assay [6] it was 2 µM. Besides, the TGI came out at 36 µM in assay [7]; 36.3 µM in assay [9]; 18.9 µM in assay [10]; 23.3 µM in [11]; 46.6 µM in assay [12].
Take `NC(=O)N/N=C(\Cc1nc2ccc(Cl)cc2[nH]c1=O)C(=O)Nc1ccc(Cl)cc1Cl`: the TGI in assay [1], in assay [2], in [3], in [4], in assay [13] and in [5] was more than 100 µM in each case. In addition, the TGI in assay [6], in assay [7], in assay [9], in [10], in [11] and in [12] was more than 100 µM throughout.
`c1ccc2c(c1)OC(N1CCCC1)c1cnc(N3CCCC3)nc1-2` (stereo unspecified): the TGI in [1] was more than 100 µM; in assay [2], 78 µM; in assay [13], more than 100 µM; in [5] it was more than 100 µM; in assay [6], 45.8 µM; in assay [7], more than 100 µM. Moreover, the TGI in assay [8] was more than 100 µM; in assay [9], 58.5 µM; in assay [10], more than 100 µM; in assay [11] it was 60.9 µM; in [12] it was more than 100 µM.
On to `Cc1ccc(-c2c(C#N)c(-c3ccccc3)n(NS(=O)(=O)c3ccccc3)c(=O)c2C#N)cc1`, for which the TGI in assay [1], in [2], in assay [3], in assay [4], in assay [13] and in [5] was more than 100 µM each time. Besides, the TGI in [6] was 55.3 µM; in assay [7] it was more than 100 µM; in assay [9], more than 100 µM; in assay [10] it was more than 100 µM; in assay [11], more than 100 µM; in assay [12] it was more than 100 µM.
Regarding `O=C1/C(=C/c2ccccc2)N=C(c2ccccc2)N1n1c(-c2ccccc2)nc2ccccc2c1=O`, the TGI in assay [1], in assay [3], in assay [4], in assay [13], in assay [5] and in assay [6] was more than 100 µM each time. The TGI in assay [7], in assay [8], in assay [9], in assay [10], in assay [11] and in [12] was more than 100 µM in each case.
With `COC(=O)C1(C(=O)OC)CC2=C(S(=O)(=O)c3ccccc3)C[C@H](S(=O)(=O)c3ccccc3)[C@H]2C1`, the TGI was more than 100 µM in assay [1]; more than 100 µM in assay [2]; more than 100 µM in assay [3]; more than 100 µM in [4]; 71.6 µM in assay [13]; more than 100 µM in assay [5]. Also, the TGI in assay [6], in assay [7], in [9], in assay [10], in [11] and in [12] was more than 100 µM in each case.
With `Cc1c(F)c(N)c2c(=O)cc(-c3ccc(NC(=O)CN(C)C)c(F)c3)oc2c1F`, the TGI was more than 100 µM in assay [1]; more than 66.1 µM in [2]; more than 100 µM in assay [3]; more than 100 µM in assay [4]; more than 94.2 µM in assay [13]; more than 100 µM in assay [5]. Also, the TGI in assay [6] was more than 83 µM; in assay [7], more than 100 µM; in assay [8] it was 61 µM; in assay [10] it was more than 100 µM; in assay [11], more than 100 µM; in [12] it was more than 100 µM.
Turning to `O=C(O)CN(CCNC(=O)OCC1c2ccccc2-c2ccccc21)CCNC(=O)OCC1c2ccccc2-c2ccccc21`, the TGI in [1] was 34.4 µM; in assay [3], more than 100 µM; in [4] it was 36.8 µM; in assay [13], 47.5 µM; in assay [5], 41.2 µM; in assay [6], 76.1 µM. The TGI in assay [7] was 96.3 µM; in assay [8], 50.2 µM; in [9], 52.5 µM; in [10], 32.9 µM; in assay [11], 67.4 µM; in [12], 80.1 µM.
As for `CN(C)CCCOc1nc2c(c(=O)n(C)c(=O)n2C)n1C` (tested in a mixture with another compound), the TGI in assay [1] is more than 100 µM; in assay [2], 66.3 µM; in assay [3] it was more than 100 µM; in [4], 48.6 µM; in assay [13] it was 6.42 µM; in assay [5], more than 100 µM. The TGI was more than 100 µM in [6]; more than 100 µM in [7]; more than 100 µM in [9]; more than 100 µM in assay [10]; more than 100 µM in assay [11]; 30.1 µM in [12].
Turning to `S=C(N/N=C\C=N/NC(=S)N1CCCCC1)N1CCCCC1`, the TGI in [1] is more than 100 µM; in [2] it was more than 100 µM; in [3], more than 22.3 µM; in assay [4], more than 32.4 µM; in [13] it was more than 100 µM; in assay [5], more than 41.5 µM. The TGI in assay [6], in assay [7], in [9], in assay [10], in assay [11] and in assay [12] was more than 100 µM each time.
Take `COc1ccc(C2CC(c3c(O)ccc4ccccc34)=NN2c2ccc([N+](=O)[O-])cc2[N+](=O)[O-])cc1OC` (stereo unspecified): the TGI was more than 100 µM in [1]; 69.1 µM in assay [2]; 17.4 µM in assay [3]; 30.2 µM in [4]; more than 100 µM in assay [13]; more than 100 µM in assay [5]. The TGI was 15.8 µM in assay [6]; more than 90.6 µM in assay [7]; more than 67 µM in [9]; 38.3 µM in assay [10]; more than 100 µM in [11]; more than 100 µM in assay [12].
As to `COc1ccccc1Nc1nc(N)nc(N)c1N=O`, the TGI in assay [1], in [3], in [4], in assay [13], in [5] and in [6] was more than 100 µM in each case. Also, the TGI in [7], in [8], in [9], in assay [10], in [11] and in [12] was more than 100 µM in each case.
On to `Cc1c(-c2nc3ccccc3[nH]2)c(=O)n(-c2ccccc2)n1C`, for which the TGI in assay [1], in assay [2], in assay [3], in assay [4], in assay [13] and in assay [5] was more than 100 µM in each case. The TGI in assay [6], in assay [9], in assay [10], in assay [11] and in assay [12] was more than 100 µM throughout.
